The compounds below were run against Beta-3 Adrenergic Receptor (Homo sapiens (Human), UniProt P13945) (assay: Homogeneous Time-Resolved Fluorescence (HTRF) cAMP antagonist assay, IC50 determination). Details: CHO-K1 cells stably expressing recombinant receptor, isoproterenol at EC90.
Type: cell-based
Method in brief: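 In this functional readout, recombinant CHO-K1 cells received compound, then isoproterenol at its EC90. After 1 h at room temperature, cAMP levels were determined by HTRF using an on-plate standard curve, and IC50 values were fitted.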

Sequence of Beta-3 Adrenergic Receptor (P13945 whole entry, species assumed): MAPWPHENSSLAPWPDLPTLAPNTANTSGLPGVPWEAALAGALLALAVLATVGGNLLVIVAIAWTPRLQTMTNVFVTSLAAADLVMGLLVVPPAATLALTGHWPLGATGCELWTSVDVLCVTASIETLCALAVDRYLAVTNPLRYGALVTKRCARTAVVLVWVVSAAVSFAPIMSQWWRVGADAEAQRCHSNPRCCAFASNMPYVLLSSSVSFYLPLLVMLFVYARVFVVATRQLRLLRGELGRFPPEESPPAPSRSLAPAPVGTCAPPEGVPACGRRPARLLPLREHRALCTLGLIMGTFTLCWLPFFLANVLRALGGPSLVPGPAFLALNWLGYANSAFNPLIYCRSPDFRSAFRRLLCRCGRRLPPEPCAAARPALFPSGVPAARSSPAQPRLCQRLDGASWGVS

| SMILES | IC50 [µM] |
| --- | --- |
| CNS(=O)(=O)c1cccc(OC[C@@H](O)CNC2COC3(CCN(S(=O)(=O)c4ccc5c(c4)CCCC5)CC3)C2)c1 (stereo partly drawn) [Compound 16, 3-((2S)-2-hydroxy-3-(8-(5,6,7,8-tetrahydronaphthalen-2-ylsulfonyl)-1-oxa-8-azaspiro[4.5]decan-3-ylamino)propoxy)-N-methylbenzenesulfonamide] | 0.00747 |
| CN(C)S(=O)(=O)c1cccc(OC[C@@H](O)CNC2COC3(CCN(S(=O)(=O)c4ccc5ccccc5c4)CC3)C2)c1 (stereo partly drawn) [Compound 4, 3-((2S)-2-hydroxy-3-(8-(naphthalen-2-ylsulfonyl)-1-oxa-8-azaspiro[4.5]decan-3-ylamino)propoxy)-N,N-dimethylbenzenesulfonamide] | 0.0112 |
| CNS(=O)(=O)c1cccc(OC[C@@H](O)CN[C@@H]2COC3(CCN(S(=O)(=O)c4cnc5ccccc5c4)CC3)C2)c1 [Compound 335, 3-((S)-2-hydroxy-3-((S)-8-(quinolin-3-ylsulfonyl)-1-oxa-8-azaspiro[4.5]decan-3-ylamino)propoxy)-N-methylbenzenesulfonamide] | 0.0121 |
| CNS(=O)(=O)c1cccc(OC[C@@H](O)CN[C@@H]2COC3(CCN(S(=O)(=O)c4cccc(-c5ccc(CN)cc5)c4OC)CC3)C2)c1 [Compound 448, 3-((S)-3-((S)-8-(4′-(aminomethyl)-2-methoxybiphenyl-3-ylsulfonyl)-1-oxa-8-azaspiro[4.5]decan-3-ylamino)-2-hydroxypropoxy)-N-methylbenzenesulfonamide] | 0.032 |
| CNS(=O)(=O)c1cccc(OC[C@@H](O)CNC2COC3(CCN(S(=O)(=O)c4cccc(-c5cc[nH]c5)c4)CC3)C2)c1 (stereo partly drawn) [Compound 63, 3-((2S)-3-(8-(3-(1H-pyrrol-3-yl)phenylsulfonyl)-1-oxa-8-azaspiro[4.5]decan-3-ylamino)-2-hydroxypropoxy)-N-methylbenzenesulfonamide] | 0.0193 |
| CC(C)(C)NS(=O)(=O)c1cccc(OC[C@@H](O)CNC2COC3(CCN(S(=O)(=O)c4ccc5ccccc5c4)CC3)C2)c1 (stereo partly drawn) [Compound 94, N-tert-butyl-3-((2S)-2-hydroxy-3-(8-(naphthalen-2-ylsulfonyl)-1-oxa-8-azaspiro[4.5]decan-3-ylamino)propoxy)benzenesulfonamide] | 0.0598 |
| CNS(=O)(=O)c1cccc(OC[C@@H](O)CNC2COC3(CCN(S(=O)(=O)c4cccc(-c5cccc(CN)c5)c4)CC3)C2)c1 (stereo partly drawn) [Compound 67, 3-((2S)-3-(8-(3′-(aminomethyl)biphenyl-3-ylsulfonyl)-1-oxa-8-azaspiro[4.5]decan-3-ylamino)-2-hydroxypropoxy)-N-methylbenzenesulfonamide] | 0.0231 |
| CNS(=O)(=O)c1cccc(OC[C@@H](O)CNC2COC3(CCN(S(=O)(=O)c4cccc(C#N)c4)CC3)C2)c1 (stereo partly drawn) [Compound 32, 3-((2S)-3-(8-(3-cyanophenylsulfonyl)-1-oxa-8-azaspiro[4.5]decan-3-ylamino)-2-hydroxypropoxy)-N-methylbenzenesulfonamide] | 0.0166 |
| CNS(=O)(=O)c1cccc(OC[C@@H](O)CN[C@@H]2COC3(CCN(S(=O)(=O)c4cc(OC)cc(-c5ccc(CN)cc5)c4)CC3)C2)c1 [Compound 449, 3-((S)-3-((S)-8-(4′-(aminomethyl)-5-methoxybiphenyl-3-ylsulfonyl)-1-oxa-8-azaspiro[4.5]decan-3-ylamino)-2-hydroxypropoxy)-N-methylbenzenesulfonamide] | 0.0122 |
| CNS(=O)(=O)c1cccc(OC[C@@H](O)CN[C@H]2COC3(CCN(S(=O)(=O)c4cnc5c(c4)COCC5)CC3)C2)c1 [Compound 488, 3-((S)-3-((R)-8-(7,8-dihydro-5H-pyrano[4,3-b]pyridin-3-ylsulfonyl)-1-oxa-8-azaspiro[4.5]decan-3-ylamino)-2-hydroxypropoxy)-N-methylbenzenesulfonamide] | 0.0381 |
| CNS(=O)(=O)c1cccc(OC[C@@H](O)CN[C@H]2COC3(CCN(S(=O)(=O)c4cnc5c(c4)OCCN5C)CC3)C2)c1 [Compound 481, 3-((S)-2-hydroxy-3-((R)-8-(4-methyl-3,4-dihydro-2H-pyrido[3,2-b][1,4]oxazin-7-ylsulfonyl)-1-oxa-8-azaspiro[4.5]decan-3-ylamino)propoxy)-N-methylbenzenesulfonamide] | 0.0311 |
| CCn1cc(S(=O)(=O)N2CCC3(CC2)C[C@@H](NC[C@H](O)COc2cccc(S(=O)(=O)NC)c2)CO3)c(=O)c2cc(F)ccc21 [Compound 536, 3-((S)-3-((R)-8-(1-ethyl-6-fluoro-4-oxo-1,4-dihydroquinolin-3-ylsulfonyl)-1-oxa-8-azaspiro[4.5]decan-3-ylamino)-2-hydroxypropoxy)-N-methylbenzenesulfonamide] | 0.166 |
| CNS(=O)(=O)c1cccc(OC[C@@H](O)CNC2COC3(CCN(S(=O)(=O)c4cccc(-c5ccc(CNC(C)C)cc5)c4)CC3)C2)c1 (stereo partly drawn) [Compound 303, 3-((2S)-2-hydroxy-3-(8-(4′-((isopropylamino)methyl)biphenyl-3-ylsulfonyl)-1-oxa-8-azaspiro[4.5]decan-3-ylamino)propoxy)-N-methylbenzenesulfonamide] | 0.0326 |
| CNS(=O)(=O)c1cccc(OC[C@@H](O)CNC2COC3(CCN(S(=O)(=O)c4ccc(NC(C)=O)cc4)CC3)C2)c1 (stereo partly drawn) [Compound 42, N-(4-(3-((S)-2-hydroxy-3-(3-(N-methylsulfamoyl)phenoxy)propylamino)-1-oxa-8-azaspiro[4.5]decan-8-ylsulfonyl)phenyl)acetamide] | 0.0319 |
| CCCc1cnc(N2CCC3(CC2)C[C@@H](NC[C@H](O)COc2cccc(S(=O)(=O)NC)c2)CO3)nc1 [Compound 579, 3-((S)-2-hydroxy-3-((R)-8-(5-propylpyrimidin-2-yl)-1-oxa-8-azaspiro[4.5]decan-3-ylamino)propoxy)-N-methylbenzenesulfonamide] | 0.34 |
| CNS(=O)(=O)c1cccc(OC[C@@H](O)CNC2COC3(CCN(S(=O)(=O)c4ccc5[nH]ncc5c4)CC3)C2)c1 (stereo partly drawn) [Compound 325, 3-((2S)-3-(8-(1H-indazol-5-ylsulfonyl)-1-oxa-8-azaspiro[4.5]decan-3-ylamino)-2-hydroxypropoxy)-N-methylbenzenesulfonamide] | 0.0427 |
| C[C@@H](NS(=O)(=O)c1cccc(OC[C@@H](O)CNC2COC3(CCN(S(=O)(=O)c4ccc5ccccc5c4)CC3)C2)c1)C1CC1 (stereo partly drawn) [Compound 93, N—((R)-1-cyclopropylethyl)-3-((2S)-2-hydroxy-3-(8-(naphthalen-2-ylsulfonyl)-1-oxa-8-azaspiro[4.5]decan-3-ylamino)propoxy)benzenesulfonamide] | 0.112 |
| CNS(=O)(=O)c1cccc(OC[C@@H](O)CNC2COC3(CCN(S(=O)(=O)c4cccc(-c5sc(C)nc5C)c4)CC3)C2)c1 (stereo partly drawn) [Compound 73, 3-((2S)-3-(8-(3-(2,4-dimethylthiazol-5-yl)phenylsulfonyl)-1-oxa-8-azaspiro[4.5]decan-3-ylamino)-2-hydroxypropoxy)-N-methylbenzenesulfonamide] | 0.0221 |
| CNS(=O)(=O)c1cccc(OC[C@@H](O)CN[C@H]2COC3(CCN(S(=O)(=O)c4cnc5c(c4)CNCC5)CC3)C2)c1 [Compound 484, 3-((S)-2-hydroxy-3-((R)-8-(5,6,7,8-tetrahydro-1,6-naphthyridin-3-ylsulfonyl)-1-oxa-8-azaspiro[4.5]decan-3-ylamino)propoxy)-N-methylbenzenesulfonamide] | 0.278 |
| CCN1CCOc2ccc(S(=O)(=O)N3CCC4(CC3)CC(NC[C@H](O)COc3cccc(S(=O)(=O)NC)c3)CO4)cc21 (stereo partly drawn) [Compound 333, 3-((2S)-3-(8-(4-ethyl-3,4-dihydro-2H-benzo[b][1,4]oxazin-6-ylsulfonyl)-1-oxa-8-azaspiro[4.5]decan-3-ylamino)-2-hydroxypropoxy)-N-methylbenzenesulfonamide] | 0.00902 |
| CNS(=O)(=O)c1cccc(OC[C@@H](O)CN[C@H]2COC3(CCN(S(=O)(=O)c4cn(C)c5ccccc5c4=O)CC3)C2)c1 [Compound 494, 3-((S)-2-hydroxy-3-((R)-8-(1-methyl-4-oxo-1,4-dihydroquinolin-3-ylsulfonyl)-1-oxa-8-azaspiro[4.5]decan-3-ylamino)propoxy)-N-methylbenzenesulfonamide] | 0.0624 |
| CNS(=O)(=O)c1cccc(OC[C@@H](O)CN[C@@H]2COC3(CCN(S(=O)(=O)c4cccc(-c5ccc(CC#N)cc5)c4)CC3)C2)c1 [Compound 293, 3-((S)-3-((S)-8-(4′-(cyanomethyl)biphenyl-3-ylsulfonyl)-1-oxa-8-azaspiro[4.5]decan-3-ylamino)-2-hydroxypropoxy)-N-methylbenzenesulfonamide] | 0.0162 |
| CNS(=O)(=O)c1cccc(OC[C@@H](O)CNC2COC3(CCN(S(=O)(=O)c4ccc(CN)cc4)CC3)C2)c1 (stereo partly drawn) [Compound 391, 3-((2S)-3-(8-(4-(aminomethyl)phenylsulfonyl)-1-oxa-8-azaspiro[4.5]decan-3-ylamino)-2-hydroxypropoxy)-N-methylbenzenesulfonamide] | 0.446 |
| CNS(=O)(=O)c1cccc(OC[C@@H](O)CNC2COC3(CCN(S(=O)(=O)c4ccc5[nH]c(=O)sc5c4)CC3)C2)c1 (stereo partly drawn) [Compound 58, 3-((2S)-2-hydroxy-3-(8-(2-oxo-2,3-dihydrobenzo[d]thiazol-6-ylsulfonyl)-1-oxa-8-azaspiro[4.5]decan-3-ylamino)propoxy)-N-methylbenzenesulfonamide] | 0.043 |
| CN(C)S(=O)(=O)c1cccc(OC[C@@H](O)CNC2COC3(CCN(S(=O)(=O)c4ccc5nsnc5c4)CC3)C2)c1 (stereo partly drawn) [Compound 251, 3-((2S)-3-(8-(benzo[c][1,2,5]thiadiazol-5-ylsulfonyl)-1-oxa-8-azaspiro[4.5]decan-3-ylamino)-2-hydroxypropoxy)-N,N-dimethylbenzenesulfonamide] | 0.0329 |
| CNS(=O)(=O)c1cccc(OC[C@@H](O)CNC2COC3(CCN(S(=O)(=O)c4ccc(OC)c5nonc45)CC3)C2)c1 (stereo partly drawn) [Compound 173, 3-((2S)-2-hydroxy-3-(8-(7-methoxybenzo[c][1,2,5]oxadiazol-4-ylsulfonyl)-1-oxa-8-azaspiro[4.5]decan-3-ylamino)propoxy)-N-methylbenzenesulfonamide] | 0.029 |
